In US12268782B2, “Preparation method of fatty acid liposome for VC encapsulation” (Jiangnan University, priority 2020, dated 2025):

Assay: Degradation of VC in deionized water over time at different temperatures (FIG. 1)
Format: physicochemical
Excerpt: Vitamin C (VC), also known as L-ascorbic acid, is a main component of common food additives and cosmetics, and can serve as a vitamin supplement and an antioxidant in cosmetics. However, VC is very unstable in neutral or alkaline aqueous solutions.

degradation rate of VC (deionized water, 6 h, temperature higher than 50° C.): 80% | VC degrades (degradation) (initial concentration 0.27 mg/mL in deionized water, 25° C., after 12 h): 29%
Compound: O=C1O[C@H]([C@@H](O)CO)C(O)=C1O [VC, L-ascorbic acid]
